Patent EP4060021A1, “MIMETIC MICROBIOLOGICAL CULTURE MEDIUM AND USES THEREOF” (BIOFILM PHARMA, priority 2021, dated 2022)
≈ marks a conversion by molar mass, not a printed value.

What was measured:
[1] = tested on: souches de S. aureus issues de prélèvements de plaies du pied infectées chez des patients diabétiques; assay: Antibiotic susceptibility test (MIC, 96-well microplate, OD 600 nm) in wound medium of the invention (MP); assay type: cell-based; conditions: for MIC: Staphylococcus aureus, read-out: CMI en milieu plaie MP
Description: (§1) • La Figure 1 représente des courbes de croissance de bactéries en fonction du milieu de culture. Sur cette figure, les ordonnées correspondent au logarithme d'unités formant colonie par millilitre de milieu de culture (Log UFC/ml) et les abscisses, au temps en heure (H). La Figure 1A représente les courbes correspondant à la croissance de 2 souches de S. aureus, Newman (gauche) et SAC1 (droite), dans le milieu BHI (courbe avec indicateurs ronds) et un exemple de milieu selon l'invention (MP) (courbe avec indicateurs carrés). La Figure 1B représente les courbes correspondant à la croissance de 2 souches de P. aeruginosa, PAO1 (gauche) et PAC1 (droite), dans le milieu BHI (courbe avec indicateurs ronds) et un exemple de milieu selon l'invention (MP) (courbe avec indicateurs carrés). La Figure 1C représente les courbes correspondant à la croissance de 2 souches cliniques S. aureus SAC1 et P. aeruginosa PAC1, en coculture dans le milieu BHI (P. aeruginosa BHI ou S. aureus BHI) et un exemple de milieu selon l'invention (MP) (P. aeruginosa MP ou S. aureus MP). La mesure de différence significative, réalisée par le test de Student, entre les valeurs d'UFC/mL est exprimée, soit par (***) qui correspond à une p-value <0,001, soit par (**) qui correspond à une p-value <0,01. • La Figure 2 représente les résultats obtenus d'une détermination de l'adhésion et de la formation de biofilm par dénombrement à 24h. Sur cette figure, les ordonnées correspondent au logarithme d'unités formant colonie par millilitre de milieu de culture (Log UFC/ml). La Figure 2A représente un histogramme ou diagramme en bâton du nombre de bactéries dénombrées suite à des cultures séparées de souche S. aureus Newman (Newman), S. aureus SAC1 (SAC 1), P. aeruginosa PAO1 (PAO1) ou P. aeruginosa PAC1 (PAC1), pendant 24H dans un milieu BHI (BHI) (bâtons noirs) ou dans un exemple de milieu selon l'invention (MP) (bâtons gris). La Figure 2B montre sous forme d'histogramme le nombre de bactéries dénombrées suite à des co-cultures des souches de référence S. aureus Newman et P. aeruginosa PAO1 (PAO1/Newman), ainsi que du couple de souches cliniques S. aureus SAC1 et P. aeruginosa PAC1 (PAC 1/SAC1), pendant 24H dans un milieu BHI (BHI) (bâtons noirs) ou dans un exemple de milieu selon l'invention (MP) (bâtons gris). La mesure de différence significative, réalisée par le test de Student, entre les valeurs d'UFC est exprimée, soit par (***) qui correspond à une p-value <0,001, soit par (**) qui correspond à une p-value <0,01. • La Figure 3 représente les résultats obtenus d'une détermination de sensibilité à des antibiotiques de souches cliniques de S. aureus issues d'infections de plaies du pied chez le diabétique. Les données cliniques, anonymisées, nécessaires à l'interprétation des résultats, consistaient en l'antibiothérapie donnée au patient, ainsi que la qualification par les médecins hospitaliers d'un succès ou échec thérapeutique. La définition de succès ou échec thérapeutique est définie comme suit. Le patient commence et suit l'antibiothérapie prescrite et un deuxième prélèvement microbiologique est effectué lors du dernier jour de traitement de la 1ère antibiothérapie (± 2 jours). Ce prélèvement est utilisé pour déterminer la présence/absence du pathogène ciblé par l'antibiothérapie, S. aureus. Si ce prélèvement a montré la persistance d'un S. aureus, l'antibiothérapie est en échec. A l'inverse, en cas d'absence de S. aureus, l'antibiothérapie est associée à un succès thérapeutique. Les antibiogrammes ont été réalisés classiquement sur une durée de 18h ± 2h en accord avec les recommandations de l'EUCAST. Une gamme de l'antibiotique à tester a été réalisée. • La Figure 3A montre sous forme d'histogramme les résultats des CMI déduites d'antibiogrammes sur 11 souches testées en présence d'amoxicilline / clavulanate de potassium (commercialisé par exemple sous le nom d'Augmentin (marque déposée)).

[2] = tested on: souches de S. aureus issues de prélèvements de plaies du pied infectées chez des patients diabétiques; assay: Antibiotic susceptibility test (MIC, 96-well microplate, OD 600 nm) in Mueller-Hinton medium (MH); assay type: cell-based; parameters: key to Classification (S) ou (R) en MH: S (sensible); R (résistante); conditions: for MIC: Staphylococcus aureus, read-out: CMI en milieu MH
Description: as §1

Structure (SMILES): CCC[C@@H]1C[C@@H](C(=O)N[C@@H]([C@H]2O[C@H](SC)[C@H](O)[C@@H](O)[C@H]2O)[C@H](C)Cl)N(C)C1 [clindamycine]
- MIC ([1]; souche C01P009): 0.25 µg/mL (≈ 0.588 µM)
- MIC ([1]; souche C01P010): 2 µg/mL (≈ 4.71 µM)
- MIC ([1]; souche C03P003): 0.25 µg/mL (≈ 0.588 µM)
- MIC ([1]; souche C03P004): 0.25 µg/mL (≈ 0.588 µM)
- MIC ([1]; souche C03P005): 1 µg/mL (≈ 2.35 µM)
- MIC ([1]; souche C03P009): 0.5 µg/mL (≈ 1.18 µM)
- Classification (S) ou (R) en MP ([1]; souche C01P009): (S) (valeur de CMI mesurée dans un milieu plaie, exemple de milieu selon l'invention (MP) inférieure ou égale au seuil déterminé et peuvent être classifiées comme sensibles (noté S dans le tableau 5C))
- Classification (S) ou (R) en MP ([1]; souche C01P010): (R) (valeur de CMI mesurée dans un milieu plaie, exemple de milieu selon l'invention (MP), supérieure au seuil et peuvent être classifiées comme résistantes (noté R dans le tableau 5C))
- Classification (S) ou (R) en MP ([1]; souche C03P003): (S) (valeur de CMI mesurée dans un milieu plaie, exemple de milieu selon l'invention (MP) inférieure ou égale au seuil déterminé et peuvent être classifiées comme sensibles (noté S dans le tableau 5C))
- Classification (S) ou (R) en MP ([1]; souche C03P004): (S) (valeur de CMI mesurée dans un milieu plaie, exemple de milieu selon l'invention (MP) inférieure ou égale au seuil déterminé et peuvent être classifiées comme sensibles (noté S dans le tableau 5C))
- Classification (S) ou (R) en MP ([1]; souche C03P005): (R) (valeur de CMI mesurée dans un milieu plaie, exemple de milieu selon l'invention (MP), supérieure au seuil et peuvent être classifiées comme résistantes (noté R dans le tableau 5C))
- Classification (S) ou (R) en MP ([1]; souche C03P009): (S) (valeur de CMI mesurée dans un milieu plaie, exemple de milieu selon l'invention (MP) inférieure ou égale au seuil déterminé et peuvent être classifiées comme sensibles (noté S dans le tableau 5C))
- MIC ([2]; souche C01P009): 0.25 µg/mL (≈ 0.588 µM)
- MIC ([2]; souche C01P010): 0.25 µg/mL (≈ 0.588 µM)
- MIC ([2]; souche C03P003): 0.25 µg/mL (≈ 0.588 µM)
- MIC ([2]; souche C03P004): 0.25 µg/mL (≈ 0.588 µM)
- MIC ([2]; souche C03P005): 0.25 µg/mL (≈ 0.588 µM)
- MIC ([2]; souche C03P009): 0.5 µg/mL (≈ 1.18 µM)
- Classification (S) ou (R) en MH ([2]; souche C01P009): (S)
- Classification (S) ou (R) en MH ([2]; souche C01P010): (S)
- Classification (S) ou (R) en MH ([2]; souche C03P003): (S)
- Classification (S) ou (R) en MH ([2]; souche C03P004): (S)
- Classification (S) ou (R) en MH ([2]; souche C03P005): (S)
- Classification (S) ou (R) en MH ([2]; souche C03P009): (S)
